Assay results from patent US20260167622A1, “PAN-KRAS DEGRADING AGENT, AND PREPARATION METHOD THEREFOR AND USE THEREOF” (LEADINGTAC PHARMACEUTICAL (SHAOXING) CO., LTD., priority 2022, published 2026).

What was measured:
Type in all cases: cell-based
[1] = system: KRAS G13D mutant human colorectal cancer epithelial cell DLD-1; assay: 3D cell proliferation inhibition assay, DLD-1; conditions: DLD-1, 168 h, 3D culture, 7 days, CTG
In short: (§1)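 Seven-day 3D growth at 37 °C in low-adsorption wells, 5×10^2 cells/well except MKN1 (1×10^3), final compound range 10000–0.026 nM in 0.2% DMSO. CTG luminescence read-out; percent inhibition set against DMSO and medium-only wells, IC50 by curve fitting.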

[2] = system: KRAS G12D mutant human metastatic pancreatic cancer cell AsPc-1; assay: 3D cell proliferation inhibition assay, AsPc-1; conditions: ASPC1, 168 h, 3D culture, 7 days, CTG
In short: as §1

[3] = system: KRAS G12V mutant human colorectal cancer cell SW620; assay: 3D cell proliferation inhibition assay, SW620; conditions: SW-620, 168 h, 3D culture, 7 days, CTG
In short: as §1

[4] = molecular target: T1, KRAS G12C protein in NCI-H358 cells (Homo sapiens, UniProt P01116, G12C); assay: KRAS degradation assay (Western Blot) in NCI-H358 cells; conditions: 24 h
T1 construct: endogenous in cells; host or cells: NCI-H358
T1 sequence (P01116 1-188 isoform P01116-2 G12C): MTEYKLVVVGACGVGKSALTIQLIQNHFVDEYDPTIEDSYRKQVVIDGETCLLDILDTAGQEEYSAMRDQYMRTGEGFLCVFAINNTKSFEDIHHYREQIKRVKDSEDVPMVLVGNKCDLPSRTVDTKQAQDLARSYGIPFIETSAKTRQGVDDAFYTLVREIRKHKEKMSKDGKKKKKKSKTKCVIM
Excerpt: (§2) Test Example 5: KRAS G12C, KRAS G12D, KRAS G12V, KRAS G13D, and KRAS WT (Expanded) Degradation Assays
(§3) The degradation effect of the compounds on KRAS was investigated on KRAS G12C mutant human non-small cell lung cancer cell NCI-H358, KRAS G12D mutant human metastatic pancreatic cancer cell AsPc-1, KRAS G12D mutant human lung cancer cell A427, KRAS G12V mutant human colorectal cancer cell SW620, KRAS G12V mutant human lung cancer cell SW900, KRAS G13D mutant human colorectal cancer epithelial cell DLD-1, and KRAS WT human gastric cancer cell MKN-1. The specific procedures were as follows: 0.95 mL of cells were seeded into each well of a 24-well cell culture plate to achieve a cell density of 5×10^5 cells/well; and the cell plate was incubated in an incubator at 37° C. with 5% CO2 overnight. Then 50 μL of the compound solution after dilution was added to each of the wells with the corresponding cells, so that the final concentration of the compound was in a range of 0.03-3000 nM. The final concentration of DMSO was 0.25%. After the compounds were added, the cell plate was incubated in an incubator at 37° C. with 5% CO2 for 24 h. The culture medium in the 24-well cell culture plate was then removed, and the plate was washed twice with 1×PBS (KeyGEN). 120 μL of RIPA (strong) lysis buffer (Beyotime) (supplemented with 1 mM phenylmethylsulfonyl fluoride, a protease inhibitor mixture (Beyotime), and a protease phosphatase inhibitor mixture (Beyotime)) was added to lyse adherent SW900 cells at the bottom of the cell culture plate. After the plate was left to stand on ice for 30 min, the protein lysate in each well was transferred to a 1.5 mL centrifuge tube and centrifuged at 15000 g for 20 min at 4° C. The cell lysate supernatants after centrifugation were cryopreserved in a refrigerator at −80° C. for later use.
(§4) After the samples of the cell lysate supernatants that had been prepared were thawed from the refrigerator at −80° C., the total protein concentrations of the cell lysates were determined using a BCA protein quantification kit (Tiangen). The total protein concentrations of the samples were then adjusted to 0.5 μg/μL with PBS and 5×SDS-PAGE protein loading buffer (Beyotime), and the samples were incubated in a water bath at 100° C. for 15 min. The samples were then incubated in an ice bath for 5 min and centrifuged at 14000 g for 1 min at 4° C., and the supernatants were mixed well as loading samples for the Western Blot assay. The samples were loaded into wells of a 10% precast gel (KeyGEN) with a loading volume of 10 μL (total protein: 5 μg), a sufficient Tris-MOPS-SDS running buffer (Adamas) was added, and then electrophoresis was performed at a constant voltage of 120 V for 55 min. After the electrophoresis, the proteins on the gel were transferred to PVDF membranes at a constant current of 250 mA for 55 min. After the membrane transfer, the PVDF membranes were incubated in 1× Quick Block blocking buffer (Beyotime)at room temperature for 30 min. After the blocking, the PVDF membranes were separately incubated at 4° C. overnight with the KRAS antibody (Abcam) diluted in a ratio of 1:1000 and the β-actin antibody (Abcam) diluted in a ratio of 1:2000 in 5% BSA as the diluent, and then washed with 1×TBST buffer (2.4 g of Tris, 8.8 g of NaCl, 1.5 mL of Tween 20, with pH adjusted to 7.4, with the volume brought to 1 L) 3 times for 10 min/time. The membranes were incubated with a secondary antibody (Abcam) diluted in 5% BSA at room temperature for 2 h, and then washed with 1×TBST buffer 3 times for 10 min/time. Finally, the membranes were incubated with Clarity Western ECL Substrate (BIO-RAD) for 5 min for luminescence and color development, and a ChemiScope 6200 Touch chemiluminescence imaging system (Clinx) was used for color development and protein mapping. Gray value analysis of the protein maps was performed using the chemiluminescence analysis software (Clinx). […]

[5] = system: KRAS G12C mutant human non-small cell lung cancer cell NCI-H358; assay: 3D cell proliferation inhibition assay, NCI-H358; conditions: NCI-H358, 168 h, 3D culture, 7 days, CTG
In short: as §1

[6] = molecular target: T2, KRAS G13D protein in DLD-1 cells (Homo sapiens, UniProt P01116, G13D); assay: KRAS degradation assay (Western Blot) in DLD-1 cells; conditions: 24 h
T2 construct: endogenous in cells; host or cells: DLD-1
T2 sequence (P01116 1-188 isoform P01116-2 G13D): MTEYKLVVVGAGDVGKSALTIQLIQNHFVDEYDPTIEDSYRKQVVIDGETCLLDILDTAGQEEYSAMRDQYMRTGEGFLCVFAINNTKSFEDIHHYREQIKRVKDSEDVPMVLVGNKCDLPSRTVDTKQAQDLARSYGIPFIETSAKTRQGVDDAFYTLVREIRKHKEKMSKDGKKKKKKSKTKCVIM
Excerpt: as §2, §3, §4

[7] = molecular target: T3, KRAS G12D protein in AsPc-1 cells (Homo sapiens, UniProt P01116, G12D); assay: KRAS degradation assay (Western Blot) in AsPc-1 cells; conditions: for DC50: 24 h; for Dmax: ASPC1, 24 h
T3 construct: endogenous in cells; host or cells: AsPc-1
T3 sequence (P01116 1-188 isoform P01116-2 G12D): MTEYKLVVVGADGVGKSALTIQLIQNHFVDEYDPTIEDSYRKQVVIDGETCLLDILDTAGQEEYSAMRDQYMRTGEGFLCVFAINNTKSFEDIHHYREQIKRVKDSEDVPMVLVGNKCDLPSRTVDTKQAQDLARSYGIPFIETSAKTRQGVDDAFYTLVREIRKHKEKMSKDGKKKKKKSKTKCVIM
Excerpt: as §2, §3, §4

[8] = system: KRAS WT human gastric cancer cell MKN1; assay: 3D cell proliferation inhibition assay, MKN1; conditions: MKN-1, 168 h, 3D culture, 7 days, CTG
In short: as §1

[9] = molecular target: T4, KRAS G12V protein in SW620 cells (Homo sapiens, UniProt P01116, G12V); assay: KRAS degradation assay (Western Blot) in SW620 cells; conditions: for DC50: 24 h; for Dmax: SW-620, 24 h
T4 construct: endogenous in cells; host or cells: SW620
T4 sequence (P01116 1-188 isoform P01116-2 G12V): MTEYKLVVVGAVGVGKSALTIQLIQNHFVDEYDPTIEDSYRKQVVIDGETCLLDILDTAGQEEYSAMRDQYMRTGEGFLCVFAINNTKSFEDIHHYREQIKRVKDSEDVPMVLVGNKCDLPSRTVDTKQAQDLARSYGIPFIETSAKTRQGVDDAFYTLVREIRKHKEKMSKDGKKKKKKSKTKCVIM
In short: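 Western blot read-out: KRAS band gray value divided by β-actin, compared with DMSO control to give degradation rate. DC50 and Dmax came from log concentration–response fits after 24 h compound exposure (0.03–3000 nM final, 0.25% DMSO) at 37 °C, 5% CO2.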

[10] = molecular target: T5, KRAS WT (expanded) protein in MKN1 cells (Homo sapiens, UniProt P01116); assay: KRAS degradation assay (Western Blot) in MKN1 cells; conditions: for DC50: 24 h; for Dmax: MKN-1, 24 h
T5 construct: endogenous in cells; host or cells: MKN1 (MKN-1)
T5 sequence (P01116 1-188 isoform P01116-2): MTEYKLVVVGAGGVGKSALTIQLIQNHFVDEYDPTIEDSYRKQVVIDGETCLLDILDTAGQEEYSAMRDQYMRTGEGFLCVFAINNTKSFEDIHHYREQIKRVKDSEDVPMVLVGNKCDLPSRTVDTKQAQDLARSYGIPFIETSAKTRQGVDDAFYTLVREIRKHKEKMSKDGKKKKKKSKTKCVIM
Excerpt: as §2, §3, §4

Row | SMILES | IC50 [1] | IC50 [2] | IC50 [3] | DC50 [4] | Dmax [4] | IC50 [5] | DC50 [6] | Dmax [6] | DC50 [7] | Dmax [7] | IC50 [8] | DC50 [9] | Dmax [9] | DC50 [10] | Dmax [10]
1 | C#Cc1c(F)ccc2cc(O)cc(-c3ncc4c(N(C)[C@H]5C[C@@H]5F)nc(OC[C@H](C)CN5CCN(CC6CCC7(CC6)CCN(C(=O)c6ccc(OC)c(N8CCC(=O)NC8=O)c6)CC7)CC5)nc4c3F)c12 [Example 50, 1-(5-(9-((4-((R)-3-((7-(8-ethynyl-7-fluoro-3-hydroxynaphthalen-1-yl)-8-fluoro-4-(((1S,2S)-2-fluorocyclopropyl)(methyl)amino)pyrido[4,3-d]pyrimidin-2-yl)oxy)-2-methylpropyl)piperazin-1-yl)methyl)-3-azaspiro[5.5]undecane-3-carbonyl)-2-methoxyphenyl)dihydropyrimidine-2,4(1H,3H)-dione] | 90.9 nM | 157 nM | 3.73 nM | 21.6 nM | 96.3% | 46.7 nM | 3.98 nM | 98% | 167 nM | 77.1% | 23.7 nM | 3.22 nM | 99.4% |  | 
2 | C#Cc1c(F)ccc2cc(O)cc(-c3ncc4c(N5CCC[C@@](C)(O)C5)nc(OCC5(CN6CCN(CC7CCC8(CC7)CCN(C(=O)c7cc(N9CCC(=O)NC9=O)c(C)cc7F)CC8)CC6)CC5)nc4c3F)c12 [Example 91, (R)-1-(5-(9-((4-((1-(((7-(8-ethynyl-7-fluoro-3-hydroxynaphthalen-1-yl)-8-fluoro-4-(3-hydroxy-3-methylpiperidin-1-yl)pyrido[4,3-d]pyrimidin-2-yl)oxy)methyl)cyclopropyl)methyl)piperazin-1-yl)methyl)-3-azaspiro[5.5]undecane-3-carbonyl)-4-fluoro-2-methylphenyl)dihydropyrimidine-2,4(1H,3H)-dione] | 8.33 nM | 4.26 nM | 1.92 nM | 6.04 nM | 92.7% | 2.13 nM | 8.8 nM | 100% |  |  | 5.41 nM | 5.16 nM | 100% | 1.15 nM | 98.9%
3 | C#Cc1c(F)ccc2cc(O)cc(-c3ncc4c(N5CCC[C@@](C)(O)C5)nc(OCC5(CN6CCN(CC7CCC8(CC7)CCN(C(=O)c7ccc(CC)c(N9CCC(=O)NC9=O)c7)CC8)CC6)CC5)nc4c3F)c12 [Example 92, (R)-1-(2-ethyl-5-(9-((4-((1-(((7-(8-ethynyl-7-fluoro-3-hydroxynaphthalen-1-yl)-8-fluoro-4-(3-hydroxy-3-methylpiperidin-1-yl)pyrido[4,3-d]pyrimidin-2-yl)oxy)methyl)cyclopropyl)methyl)piperazin-1-yl)methyl)-3-azaspiro[5.5]undecane-3-carbonyl)phenyl)dihydropyrimidine-2,4(1H,3H)-dione] | 2.26 nM | 6.75 nM | 1.31 nM |  |  | 19.3 nM |  |  |  |  | 447 nM | 1.34 nM | 100% | 0.42 nM | 99%

Results, then the molecule that gave them:

Row | IC50 [1] | IC50 [2] | IC50 [3] | DC50 [4] | Dmax [4] | IC50 [5] | DC50 [6] | Dmax [6] | DC50 [7] | Dmax [7] | IC50 [8] | DC50 [9] | Dmax [9] | DC50 [10] | Dmax [10] | SMILES
4 | 2.61 nM | 23.2 nM | 5.17 nM | 17.2 nM | 100% | 85.5 nM | 1.34 nM | 100% |  |  | 21.2 nM | 1.02 nM | 100% | 2.33 nM | 100% | C#Cc1c(F)ccc2cc(O)cc(-c3ncc4c(N5CCC[C@@](C)(O)C5)nc(OC[C@H](C)CN5CCN(CC6CCC7(CC6)CCN(C(=O)c6ccc(Cl)c(N8CCC(=O)NC8=O)c6)CC7)CC5)nc4c3F)c12 [Example 48, 1-(2-chloro-5-(9-((4-((R)-3-((7-(8-ethynyl-7-fluoro-3-hydroxynaphthalen-1-yl)-8-fluoro-4-((R)-3-hydroxy-3-methylpiperidin-1-yl)pyrido[4,3-d]pyrimidin-2-yl)oxy)-2-methylpropyl)piperazin-1-yl)methyl)-3-azaspiro[5.5]undecane-3-carbonyl)phenyl)dihydropyrimidine-2,4(1H,3H)-dione]
5 | 5.88 nM | 4.68 nM | 1.12 nM |  |  | 2.5 nM | 6.78 nM | 99.3% |  |  | 2.15 nM | 1.65 nM | 100% | 0.69 nM | 99.9% | [2H]C([2H])([2H])c1ccc(C(=O)N2CCC3(CCC(CN4CCN(CC5(COc6nc(N7CCC[C@@](C)(O)C7)c7cnc(-c8cc(O)cc9ccc(F)c(C#C)c89)c(F)c7n6)CC5)CC4)CC3)CC2)cc1N1CCC(=O)NC1=O [Example 111, (R)-1-(5-(9-((4-((1-(((7-(8-ethynyl-7-fluoro-3-hydroxynaphthalen-1-yl)-8-fluoro-4-(3-hydroxy-3-methylpiperidin-1-yl)pyrido[4,3-d]pyrimidin-2-yl)oxy)methyl)cyclopropyl)methyl)piperazin-1-yl)methyl)-3-azaspiro[5.5]undecane-3-carbonyl)-2-(methyl-d3)phenyl)dihydropyrimidine-2,4(1H,3H)-dione]
6 | 7.7 nM | 9.75 nM | 0.43 nM | 1.37 nM | 100% | 6.2 nM | 5.6 nM | 100% | 25.2 nM | 95.3% | 4.31 nM | 2.42 nM | 100% |  |  | [2H]C([2H])([2H])c1ccc(C(=O)N2CCC3(CCC(CN4CCN(C[C@@H](C)COc5nc(N6CCC[C@@](C)(O)C6)c6cnc(-c7cc(O)cc8ccc(F)c(C#C)c78)c(F)c6n5)CC4)CC3)CC2)cc1N1CCC(=O)NC1=O [Example 132, 1-(5-(9-((4-((R)-3-((7-(8-ethynyl-7-fluoro-3-hydroxynaphthalen-1-yl)-8-fluoro-4-((R)-3-hydroxy-3-methylpiperidin-1-yl)pyrido[4,3-d]pyrimidin-2-yl)oxy)-2-methylpropyl)piperazin-1-yl)methyl)-3-azaspiro[5.5]undecane-3-carbonyl)-2-(methyl-d3)phenyl)dihydropyrimidine-2,4(1H,3H)-dione]
